Source: paper PMC5458179, “Oxidative DNA double strand breaks and autophagy in the antitumor effect of sterically hindered platinum(II) complexes in NSCLCs” (Oncotarget, 2017)

Tests used:
HCT-116 = experiment: MTT cytotoxicity assay; type: cell-based, human; conditions: 48 h drug exposure
Description: (§1) The results reveal that the steric hindrance plays a significant role in the cytotoxicity of complex 3.
(§2) Human cancer cell lines HepG2, SGC-7901, HCT-116, A549, NCI-H1299 and MCF-7 as well as normal liver cell line L02 were purchased from the Cell Bank of Shanghai Institute of Cell Biology. Among them, MCF-7, HepG2 cells were cultured at 37 °C in 5% CO2 with DMEM supplemented with 10% fetal bovine serum (FBS) (Hyclone, Lifescience, USA) and 1% penicillin/streptomycin (Beyotime, Nantong, China), while HCT-116, SGC-7901, A549, NCI-H1299 and L02 cells were cultured at 37 °C in 5% CO2 with RPMI-1640 supplemented with 10% FBS and 1% penicillin/streptomycin. Cells were passed every 2 days and restarted from frozen stocks upon reaching pass number 20.
(§3) In vitro cytotoxicity of the platinum compounds against human hepatocellular carcinoma (HepG-2), gastric carcinoma (SGC-7901), non-small-cell lung cancer (A549), and colorectal cancer (HCT-116) cell lines were measured by the MTT assays. Briefly, the cells were seeded in 96-well cultured plates at a density of 5000 cells/well. After overnight incubation (16 h), the cells were treated with the platinum complexes. After 48 h of incubation, 10 μL of a freshly diluted 3-(4,5-dimethyl-2-thiazolyl)-2,5-diphenyl-2H-tetrazolium bromide (MTT) solution (5 mg/mL) were added to each well and the plates were incubated at 37 °C in a humidified 5% CO2 atmosphere for 4 h. At the end of the incubation period the medium was removed and the formazan product was dissolved in 150 μL of DMSO. The cell viability was evaluated by measurement of the absorbance at 490 nm, using an Absorbance Reader (BioRad). IC50 values (compound concentration that produces 50% of cell growth inhibition) were calculated from curves constructed by plotting cell survival inhibitory rate (%) versus drug concentration logarithm. All experiments were repeated in three times. The reading values were converted to the percentage of control (% cell survival). Cytotoxic effects were expressed as IC50 values.

HepG2 = experiment: MTT cytotoxicity assay; type: cell-based, human; conditions: 48 h drug exposure
Description: as §1, §2, §3

SGC-7901 = experiment: MTT cytotoxicity assay; type: cell-based, human; conditions: 48 h drug exposure
Description: as §1, §2, §3

A549 = experiment: MTT cytotoxicity assay; type: cell-based, human; conditions: 48 h drug exposure
Description: as §1
(§4) The effects of complex 3 on the viability of NSCLC cancer cells including A549 and NCI-H1299 were detected respectively via MTT assays at time points of 12, 24, 48 and 72 h (Figure 2A). The results shown that complex 3 could inhibit the viability of the NSCLC cells.
as §2, §3

NCI-H1299 = experiment: MTT cytotoxicity assay; type: cell-based, human; conditions: 48 h drug exposure, read-out: IC50 NCI-H1299
Description: as §1, §4, §2, §3

[1] = test system: L02 normal liver cell line; experiment: MTT cytotoxicity assay; type: cell-based; conditions: 48 h drug exposure
Description: as §1, §2, §3

MCF-7 = experiment: MTT cytotoxicity assay; type: cell-based, human; conditions: exposed for 48 h
Description: as §2
In vitro cytotoxicity of the platinum compounds against human hepatocellular carcinoma (HepG-2), gastric carcinoma (SGC-7901), non-small-cell lung cancer (A549), and colorectal cancer (HCT-116) cell lines were measured by the MTT assays. Briefly, the cells were seeded in 96-well cultured plates at a density of 5000 cells/well. After overnight incubation (16 h), the cells were treated with the platinum complexes. […] The cell viability was evaluated by measurement of the absorbance at 490 nm, using an Absorbance Reader (BioRad). […] The reading values were converted to the percentage of control (% cell survival). Cytotoxic effects were expressed as IC50 values.

A549 cells [2] = experiment: Annexin V-FITC/PI apoptosis assay (flow cytometry); type: cell-based, human; conditions: A549, 50 μM for 24 h (figure legend and method: 10 μM)
Description: (§5) Apoptosis is a crucial programmed death form of aging or damaged cells. […] To further explore the impact of complex 3 on long-term clonogenic survival, colony formation assay was performed.
(§6) Annexin V-FITC apoptosis detection kit (Keygen, Jiangsu, China) assay was performed according to the manufacturer's protocol. […] Then the cells were collected, resuspended in binding buffer (pH 7.5, 10 mM HEPES, 2.5 mM CaCl2 and 140 mM NaCl), incubated with Annexin V-FITC and then PI for 10 min in the dark at room temperature, the processed cells were analyzed by flow cytometry (FACSCalibur, Becton Dickinson) and a computer station running Cell-Quest software. (BD Biosciences, Franklin Lakes, NJ).

NCI-H1299 cells = experiment: Annexin V-FITC/PI apoptosis assay (flow cytometry); type: cell-based, human; conditions: NCI-H1299, 50 μM for 24 h (figure legend and method: 10 μM)
Description: as §5, §6

p-Akt = experiment: Western blot of PI3K/Akt/mTOR pathway; type: cell-based, human; conditions: A549, 10 μM, 24 h, relative to control
Text: (§7) The mammalian target of rapamycin (mTOR) kinase is used to regulate autophagy as controlled though oxidative stress, hypoxia and growth receptors. The phosphatidylinosital-3 kinase (PI3K)/Akt signaling pathway activates mTOR through phosphorylating and inactivating the tuberous sclerosis complex (TSC)1–TSC2 complex. Inhibition of mTOR results in activation of autophagy. […] At the same time, levels of the p-Akt protein decreased to 0.95-, 1.02-, and 0.39-folds, respectively (Figure 7B). […] As a results, the administration of complex 3 decreased levels of proteins in PI3K/Akt/mTOR signaling pathways.
(§8) Lysates were centrifuged at 12,000 g for 0.5 h at 4°C. The concentrations of total proteins were measured using the BCA assay method with Varioskan spectrofluorometer and spectrophotometer (Thermo, Waltham, MA) at 562 nm. Protein (20–100 μg) prepared from the indicated cells was loaded per lane and electrophoresed in 8% or 10% sodium dodecyl sulfate polyacrylamide gel electrophoresis (SDS-PAGE), and then transferred onto polyvinylidene difluoride (PVDF) Immobilon-P membrane (Bio-Rad, USA) using a transblot apparatus (Bio-Rad, USA). The membranes were blocked with 5% (w/v) non-fat milk at 0.5 h at 37°C, followed by overnight incubation at 4°C with primary antibodies diluted in PBST. After washing with PBST, the membranes were incubated for 1 h with an IRDye´800 conjugated secondary antibody diluted 1:20000 in PBST, and the labeled proteins were detected with an Odyssey Scanning System (Li-COR., Lincoln, Nebraska, USA).

p-mTOR = experiment: Western blot of PI3K/Akt/mTOR pathway; type: cell-based, human; conditions: A549, 10 μM, 24 h, relative to control
Text: as §7, §8

A549 cells [3] = experiment: Autophagy by acridine orange flow cytometry (AVOs); type: cell-based, human; conditions: A549, NAC pretreatment
Description: (§9) The role of complex 3-induced autophagy in cell death was further analyzed (Figure 6). When A549 cancer cells were treated with complex 3 of 10 μM, the protein expression of LC3-II was increased (Figure 6A). […] Treatment with complex 3 for 24 h caused a 4.5-folds increase in cells undergoing autophagy (Figure 6C). […] Moreover, Bax and Bcl-2 expressions were measured by western blot analysis of whole cell lysates.
(§10) To investigate the role of ROS in complex 3-induced cell death, the level of intracellular H2O2 was measured. […] Exposure of A549 cells to NAC reduced levels of LC3-II from 2.3- to 1.5-folds (Figure 8B). […] In parallel, the complex 3-induced increase ratio of Bax/Bcl-2 was suppressed by NAC (Figure 8E).
Flow cytometry with acridine orange staining as described in a previous study was used to detect and quantify the AVOs, one of the characteristicsof autophagy. At the end of individual experiments, A549 cells were collected in phenol red-free RPMI 1640 medium. Green (FL-1) and red (FL-3) fluorescences of acridine orange were measured using a flow cytometer and CellQuest software (Becton Dickinson, San Jose, CA). The sum of the upper-left and upper-right quadrants of the cytogram was used to estimate the percentage of cells undergoing autophagy.

A549 cells [4] = experiment: Quantification of apoptotic cells (annexin V/PI flow cytometry); type: cell-based, human; conditions: A549, NAC pretreatment
Description: as §9, §10
The mode of cell death was analyzed by flow cytometry with annexin V/propidium iodide (PI) double-staining to detect membrane events according to a previous study. After individual treatments, whole cells were collected in 4-(2-hydroxyethyl)-1-piperazineethanesulfonic acid (HEPES) buffer containing 10 mM HEPES (pH 7.4), 140 mM NaCl, and 2.5 mM CaCl2. Cells were subsequently stained with annexin V (2.5 μg/ml) and PI (2 ng/ml) for 20 min, followed by analysis by flow cytometry (Beckman Coulter). Cystograms of the four quadrants in the figure were used to distinguish normal (annexin V^−/PI^−), early apoptotic (annexin V^+/PI^−), late apoptotic(annexin V^+/PI^+), and necrotic cells (annexin V^−/PI^+). The sum of early apoptosis and late apoptosis is presented as total apoptosis.

pET28a plasmid DNA = experiment: Agarose gel electrophoresis of plasmid DNA; conditions: 0, 20, 80, 320, 640 μM
Description: The tested complexes were incubated with DNA at different concentrations.
Appropriate dilutions of tested complexes were made, and the required volumes of solutions were added to achieve a set of concentrations in the range of 0–100 mm; pET22b DNA (5 mL, 0.20 mg) was added to each tube, and the mixtures of platinum complexes and pET22b plasmid DNA were then incubated at 37°C for 6 or 24 h. Afterward, the agarose gel (made up to 1% w/v) containing ethidium bromide was prepared with TA buffer (50 mm Tris-acetate, pH 7.5). The mixtures with loading buffer (1 mL) underwent electrophores is in agarose gel in TA buffer at 100 V for 60 min. Bands were imaged using a Molecular Imager (Bio-Rad, USA) under UV light.

Structure (SMILES)	IC50 (HCT-116)	IC50 (HepG2)	IC50 (SGC-7901)	IC50 (A549)	IC50 (NCI-H1299)	IC50 [1]	IC50 (MCF-7)	early and median apoptotic cells (A549 cells [2])	early and median apoptotic cells (NCI-H1299 cells)	late apoptotic cells (NCI-H1299 cells)	levels of the p-Akt protein (p-Akt)	amounts of p-mTOR (p-mTOR)	effect of NAC pretreatment on percentage of autophagy (A549 cells [3])	effect of NAC pretreatment on percentage of apoptosis (A549 cells [4])	gel electrophoretic mobility of plasmid DNA (pET28a plasmid DNA)
CC(C)C[NH+]1[C@@H]2CCCC[C@H]2[NH+](CC(C)C)[Pt-2]12[O]C(=O)C(=O)[O]2 (stereo partly shown) [Complex 2]	37 ± 2.76 µM	> 100 µM	> 100 µM	28.4 ± 1.45 µM	> 100 µM	> 100 µM									
CC(C)CN[C@@H]1CCCC[C@H]1N.O=C([O-])CC(=O)[O-].[Pt+2] [Complex 3a, [(1R,2R)-N^1-(2-methylpropyl)-1,2-cyclohexanediamine-N,N’](malonato-O,O’), reference compound]	65.8 ± 4.95 µM	> 100 µM		77.5 ± 5.04 µM	94.9 ± 6.74 µM		> 100 µM	12.37%	4.58%	4.12%	0.39 folds	0.69 folds	no decreased percentage of autophagy	no decreased percentage	no migration was observed
CC(C)C[NH+]1[C@@H]2CCCC[C@H]2[NH+](CC(C)C)[Pt-2]1([Cl])[Cl] (stereo partly shown) [Complex 1]	70.5 ± 5.56 µM	34.1 ± 2.55 µM	44.6 ± 3.24 µM	> 100 µM	> 100 µM	148 ± 10.6 µM									
CC(C)C[NH+]1[C@@H]2CCCC[C@H]2[NH+](CC(C)C)[Pt-2]12[O]C(=O)C1(CCC1)C(=O)[O]2 (stereo partly shown) [Complex 4]	> 100 µM	> 100 µM	> 100 µM	> 100 µM	> 100 µM	> 100 µM									
